Source: US9686985B2, “Fungicide N-cycloalkyl-N-bicyclicmethylene-carboxamide derivatives” (BAYER INTELLECTUAL PROPERTY GMBH, priority 2012, dated 2017)

Tests used:
[1] = system: Blumeria graminis f.sp. hordei; assay: Example I: in vivo preventive test on Blumeria graminis (barley); conditions: table I, 500 ppm, evaluated 7 days after inoculation
Procedure: Example I: In Vivo Preventive Test on Blumeria graminis (Barley) [table] To produce a suitable preparation of active compound, 1 part by weight of active compound or active compound combination is mixed with the stated amounts of solvent and emulsifier, and the concentrate is diluted with water to the desired concentration. To test for preventive activity, young plants are sprayed with the preparation of active compound or active compound combination at the stated rate of application. After the spray coating has been dried, the plants are dusted with spores of Blumeria graminis f.sp. hordei. The plants are placed in the greenhouse at a temperature of approximately 18° C. and a relative atmospheric humidity of approximately 80% to promote the development of mildew pustules.

Venturia inaequalis = assay: Example E: in vivo preventive test on Venturia inaequalis (apples); conditions: table E, 100 ppm, evaluated 10 days after inoculation
Procedure: Example E: In Vivo Preventive Test on Venturia inaequalis (Apples) [table] To produce a suitable preparation of active compound, 1 part by weight of active compound is mixed with the stated amounts of solvent and emulsifier, and the concentrate is diluted with water to the desired concentration. To test for preventive activity, young plants are sprayed with the preparation of active compound at the stated rate of application. After the spray coating has dried on, the plants are inoculated with an aqueous conidia suspension of the causal agent of apple scab (Venturia inaequalis) and then remain for 1 day in an incubation cabinet at approximately 20° C. and a relative atmospheric humidity of 100%. The plants are then placed in a greenhouse at approximately 21° C. and a relative atmospheric humidity of approximately 90%.

Uromyces appendiculatus = assay: Example G: in vivo preventive test on Uromyces appendiculatus (bean rust); conditions: table G1; 500 ppm; bean plants; grading 11 days after contamination
Method in brief: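 Bean plants ("Saxa") at the 2-leaf stage, grown at 24° C., sprayed preventively with active ingredient, then inoculated 24 h later with U. appendiculatus spores (150 000 spores per mL). Incubated 24 h at 20° C./100% RH, then 10 days at 20° C./70-80% RH; % efficacy graded 11 days after contamination versus solvent-treated controls.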

Puccinia recondita = assay: Example R: in vivo preventive test on Puccinia recondita (brown rust on wheat); conditions: table R; 500 ppm; wheat plants; grading 12 days after contamination
Method in brief: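 Wheat seedlings (Scipion) sprayed with active ingredient at 1 leaf stage, then inoculated 24 hours later with 100 000 spores/mL Puccinia recondita. Incubated 24 hours at 20° C. and 100% humidity, then 10 days at 20° C. and 70-80% humidity; % efficacy versus solvent-treated controls graded 12 days post-contamination.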

Botrytis cinerea = assay: Example H: in vivo preventive test on Botrytis cinerea (beans); conditions: table H, 100 ppm, lesion size 2 days after inoculation
Procedure: Example H: In Vivo Preventive Test on Botrytis cinerea (Beans)
To produce a suitable preparation of active compound, 1 part by weight of active compound is mixed with the stated amounts of solvent and emulsifier, and the concentrate is diluted with water to the desired concentration.
To test for preventive activity, young plants are sprayed with the preparation of active compound. After the spray coating has dried on, 2 small pieces of agar covered with growth of Botrytis cinerea are placed on each leaf. The inoculated plants are placed in a darkened chamber at 20° C. and a relative atmospheric humidity of 100%.
2 days after the inoculation, the size of the lesions on the leaves is evaluated. 0% means an efficacy which corresponds to that of the untreated control, while an efficacy of 100% means that no disease is observed.

Pyrenophora teres = assay: Example M: in vivo preventive test on Pyrenophora teres (barley); conditions: table M, 500 ppm, evaluated 8 days after inoculation
Procedure: Example M: In Vivo Preventive Test on Pyrenophora teres (Barley) [table] To produce a suitable preparation of active compound, 1 part by weight of active compound or active compound combination is mixed with the stated amounts of solvent and emulsifier, and the concentrate is diluted with water to the desired concentration. To test for preventive activity, young plants are sprayed with the preparation of active compound or active compound combination at the stated rate of application. After the spray coating has been dried, the plants are sprayed with a spore suspension of Pyrenophora teres. The plants remain for 48 hours in an incubation cabinet at approximately 20° C. and a relative atmospheric humidity of approximately 100%. The plants are placed in the greenhouse at a temperature of approximately 20° C. and a relative atmospheric humidity of approximately 80%.

Septoria tritici = assay: Example L: in vivo preventive test on Septoria tritici (wheat); conditions: table L; 500 ppm; wheat plants; grading 24 days after contamination
Method in brief: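 Scipion wheat at 1-leaf stage sprayed with compound, inoculated 24 h later with Septoria tritici spores (500 000/mL). Incubated 72 h at 18° C., 100% RH, then 21 days at 90% RH; % efficacy versus untreated controls graded 24 days post-inoculation.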

[2] = log P by HPLC on reversed-phase column (EEC Directive 79/831 Annex V.A8); assay type: physicochemical; conditions: Table 1; HPLC C18, 40° C., 0.1% aqueous formic acid and acetonitrile gradient
Method in brief: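 Column at 40° C; mobile phases 0.1% aqueous formic acid and acetonitrile, linear gradient 10% to 90% acetonitrile. Calibrated with unbranched alkan-2-ones (3 to 16 carbons) of known log P; values from retention times by linear interpolation between two successive alkanones.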

## Cn1nc(C(F)F)c(C(=O)N(CC2CC(C)(C)Oc3ccccc32)C2CC2)c1F (stereo not shown) [I.33]
[1]
  Efficacy: 100%
Venturia inaequalis
  Efficacy: 97%
Uromyces appendiculatus
  Efficacy: 100%
Puccinia recondita
  Efficacy: 97%
Botrytis cinerea
  Efficacy: 96%
Pyrenophora teres
  Efficacy: 100%
Septoria tritici
  Efficacy: 100%
[2]
  logP: 3.53

## CC(C1CCCc2ccccc21)N(C(=O)c1c(C(F)F)nn(C)c1F)C1CC1 (stereo not shown) [I.23]
[1]
  Efficacy: 78%
Venturia inaequalis
  Efficacy: 100%
Uromyces appendiculatus
  Efficacy: 100%
Puccinia recondita
  Efficacy: 97%
Botrytis cinerea
  Efficacy: 99%
Pyrenophora teres
  Efficacy: 100%
Septoria tritici
  Efficacy: 100%
[2]
  logP: 4.08
